Legend:
Assay in all cases: radiometric filter-binding kinase assay
MAPK8 (human) = MAPK8 (human) (UniProt P45983)
NUAK1 (human) = NUAK1 (human) (UniProt O60285)
CHEK2 (human) = CHEK2 (human) (UniProt O96017)
MAPK1 (human) = MAPK1 (human) (UniProt P28482)
MAP3K11 (human) = MAP3K11 (human) (UniProt Q16584)
MAPK13 (human) = MAPK13 (human) (UniProt O15264)
PRKACA (human) = PRKACA (human) (UniProt P17612)
MAPK3 (human) = MAPK3 (human) (UniProt P27361)
[1] = system: SGK1 (human), O00141 [S422D]
MAPK10 (human) = MAPK10 (human) (UniProt P53779)
[2] = system: AKT1 (human), P31749 [S473D]
MAPKAPK3 (human) = MAPKAPK3 (human) (UniProt Q16644)
MAP2K6 (human) = MAP2K6 (human) (UniProt P52564)
MST4 (human) = MST4 (human) (UniProt Q9P289)
RPS6KA1 KD1 KD2 (human) = RPS6KA1 KD1 KD2 (human) (UniProt Q15418)
PLK1 (human) = PLK1 (human) (UniProt P53350)
IKBKE (human) = IKBKE (human) (UniProt Q14164)
DYRK2 (human) = DYRK2 (human) (UniProt Q92630)
MAPK12 (human) = MAPK12 (human) (UniProt P53778)
PRKCA (human) = PRKCA (human) (UniProt P17252)
DYRK1A (human) = DYRK1A (human) (UniProt Q13627)
CaMK1 (human) = CaMK1 (human) (UniProt Q14012)
NEK2 (human) = NEK2 (human) (UniProt P51955)
SYK (human) = SYK (human) (UniProt P43405)
AURKA (human) = AURKA (human) (UniProt O14965)
ERBB4 (human) = ERBB4 (human) (UniProt Q15303)
PRKAA1 or PRKAA2 (rat) = conditions: accession and sequence are those of the human protein
HIPK2 (human) = HIPK2 (human) (UniProt Q9H2X6); conditions: compound 10.0 µM
MKNK1 (human) = MKNK1 (human) (UniProt Q9BUB5)
BRSK2 (human) = BRSK2 (human) (UniProt Q8IWQ3)
MARK2 (human) = MARK2 (human) (UniProt Q7KZI7)
EPHB2 (human) = EPHB2 (human) (UniProt P29323)
PAK7 (human) = PAK7 (human) (UniProt Q9P286)
EPHB3 (human) = EPHB3 (human) (UniProt P54753)
PAK4 (human) = PAK4 (human) (UniProt O96013)

Chain of AKT1 (human), P31749 [S473D] (P31749 whole entry S473D, looked up): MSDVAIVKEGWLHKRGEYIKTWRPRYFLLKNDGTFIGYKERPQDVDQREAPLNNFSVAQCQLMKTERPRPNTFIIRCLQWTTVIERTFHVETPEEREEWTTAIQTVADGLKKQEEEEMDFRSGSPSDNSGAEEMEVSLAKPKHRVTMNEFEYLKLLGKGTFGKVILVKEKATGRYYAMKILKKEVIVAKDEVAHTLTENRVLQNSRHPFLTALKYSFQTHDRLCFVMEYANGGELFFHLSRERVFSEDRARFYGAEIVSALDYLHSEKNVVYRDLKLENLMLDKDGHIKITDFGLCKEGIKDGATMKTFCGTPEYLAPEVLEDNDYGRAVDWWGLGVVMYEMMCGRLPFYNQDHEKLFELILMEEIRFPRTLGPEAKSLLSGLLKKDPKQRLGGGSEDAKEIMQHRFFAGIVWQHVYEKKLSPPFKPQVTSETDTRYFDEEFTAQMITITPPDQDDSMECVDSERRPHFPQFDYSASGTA
Chain of EPHB2 (human) (P29323 whole entry, looked up): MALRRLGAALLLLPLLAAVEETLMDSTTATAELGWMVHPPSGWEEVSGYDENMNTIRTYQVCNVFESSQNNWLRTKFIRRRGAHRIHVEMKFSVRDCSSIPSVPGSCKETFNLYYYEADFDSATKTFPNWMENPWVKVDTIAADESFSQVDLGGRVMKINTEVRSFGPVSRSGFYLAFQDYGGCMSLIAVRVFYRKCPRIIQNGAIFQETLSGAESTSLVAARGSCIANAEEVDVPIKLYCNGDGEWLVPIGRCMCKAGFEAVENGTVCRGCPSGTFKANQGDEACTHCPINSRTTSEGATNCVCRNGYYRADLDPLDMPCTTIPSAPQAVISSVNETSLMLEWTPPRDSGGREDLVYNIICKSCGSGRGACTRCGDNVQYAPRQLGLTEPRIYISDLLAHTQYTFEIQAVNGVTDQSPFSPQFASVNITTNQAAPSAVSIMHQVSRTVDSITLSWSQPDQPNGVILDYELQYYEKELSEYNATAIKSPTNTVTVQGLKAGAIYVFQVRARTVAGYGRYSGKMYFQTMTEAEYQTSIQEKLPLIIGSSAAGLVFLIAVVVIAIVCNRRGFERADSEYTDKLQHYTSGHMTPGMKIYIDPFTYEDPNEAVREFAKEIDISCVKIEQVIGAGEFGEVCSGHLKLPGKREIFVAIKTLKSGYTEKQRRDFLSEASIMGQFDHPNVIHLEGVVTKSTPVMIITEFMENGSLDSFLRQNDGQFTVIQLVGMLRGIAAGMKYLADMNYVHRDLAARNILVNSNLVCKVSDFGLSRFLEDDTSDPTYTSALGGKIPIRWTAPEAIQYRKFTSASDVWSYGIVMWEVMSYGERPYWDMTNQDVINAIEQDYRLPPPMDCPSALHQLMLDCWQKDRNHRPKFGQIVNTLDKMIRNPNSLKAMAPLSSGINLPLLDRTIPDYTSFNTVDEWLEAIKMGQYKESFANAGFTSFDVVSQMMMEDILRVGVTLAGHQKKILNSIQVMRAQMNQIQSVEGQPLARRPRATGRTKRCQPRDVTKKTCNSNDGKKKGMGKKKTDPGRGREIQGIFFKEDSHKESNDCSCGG
Chain of MST4 (human) (Q9P289 whole entry, looked up): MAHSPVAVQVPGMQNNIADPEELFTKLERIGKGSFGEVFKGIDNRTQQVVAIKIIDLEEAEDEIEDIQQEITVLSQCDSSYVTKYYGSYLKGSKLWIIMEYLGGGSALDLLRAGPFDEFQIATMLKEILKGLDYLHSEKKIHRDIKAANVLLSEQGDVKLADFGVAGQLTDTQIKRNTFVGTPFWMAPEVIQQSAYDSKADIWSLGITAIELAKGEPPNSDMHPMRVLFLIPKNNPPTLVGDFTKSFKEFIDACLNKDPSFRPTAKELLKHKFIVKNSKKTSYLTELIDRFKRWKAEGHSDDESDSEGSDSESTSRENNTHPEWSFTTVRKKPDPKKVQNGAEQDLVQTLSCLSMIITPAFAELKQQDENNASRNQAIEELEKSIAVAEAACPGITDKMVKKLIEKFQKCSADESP
Chain of AURKA (human) (O14965 whole entry, looked up): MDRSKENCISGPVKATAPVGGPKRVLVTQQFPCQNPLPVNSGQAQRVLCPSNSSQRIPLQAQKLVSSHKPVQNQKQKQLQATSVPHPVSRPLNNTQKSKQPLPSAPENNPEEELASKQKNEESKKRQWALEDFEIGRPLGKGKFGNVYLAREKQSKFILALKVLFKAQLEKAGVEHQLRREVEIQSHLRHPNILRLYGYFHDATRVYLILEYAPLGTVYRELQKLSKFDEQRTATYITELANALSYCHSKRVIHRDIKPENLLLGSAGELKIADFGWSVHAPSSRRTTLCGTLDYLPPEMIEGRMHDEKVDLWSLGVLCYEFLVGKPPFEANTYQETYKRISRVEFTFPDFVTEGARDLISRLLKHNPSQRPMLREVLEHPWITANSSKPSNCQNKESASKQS
Chain of MARK2 (human) (Q7KZI7 whole entry, looked up): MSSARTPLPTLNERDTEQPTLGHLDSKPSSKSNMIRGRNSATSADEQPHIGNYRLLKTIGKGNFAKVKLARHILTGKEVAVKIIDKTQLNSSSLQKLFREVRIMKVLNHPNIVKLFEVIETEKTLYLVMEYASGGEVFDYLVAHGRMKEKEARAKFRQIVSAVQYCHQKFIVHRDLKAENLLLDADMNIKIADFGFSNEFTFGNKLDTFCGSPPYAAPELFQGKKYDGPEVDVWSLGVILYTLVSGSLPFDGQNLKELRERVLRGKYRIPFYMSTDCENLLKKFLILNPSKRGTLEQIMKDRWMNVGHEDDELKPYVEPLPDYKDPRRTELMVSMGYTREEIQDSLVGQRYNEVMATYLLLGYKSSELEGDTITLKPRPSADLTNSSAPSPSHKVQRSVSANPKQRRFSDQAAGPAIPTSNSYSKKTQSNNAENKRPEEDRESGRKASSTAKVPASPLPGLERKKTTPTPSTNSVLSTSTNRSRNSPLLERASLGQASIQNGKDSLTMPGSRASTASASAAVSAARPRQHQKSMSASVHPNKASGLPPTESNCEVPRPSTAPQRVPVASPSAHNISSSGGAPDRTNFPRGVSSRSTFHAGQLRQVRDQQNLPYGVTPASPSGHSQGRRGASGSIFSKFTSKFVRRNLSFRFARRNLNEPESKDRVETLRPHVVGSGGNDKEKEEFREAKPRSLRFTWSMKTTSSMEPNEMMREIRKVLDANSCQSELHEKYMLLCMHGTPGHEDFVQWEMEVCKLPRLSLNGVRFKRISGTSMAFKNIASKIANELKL
Chain of EPHB3 (human) (P54753 whole entry, looked up): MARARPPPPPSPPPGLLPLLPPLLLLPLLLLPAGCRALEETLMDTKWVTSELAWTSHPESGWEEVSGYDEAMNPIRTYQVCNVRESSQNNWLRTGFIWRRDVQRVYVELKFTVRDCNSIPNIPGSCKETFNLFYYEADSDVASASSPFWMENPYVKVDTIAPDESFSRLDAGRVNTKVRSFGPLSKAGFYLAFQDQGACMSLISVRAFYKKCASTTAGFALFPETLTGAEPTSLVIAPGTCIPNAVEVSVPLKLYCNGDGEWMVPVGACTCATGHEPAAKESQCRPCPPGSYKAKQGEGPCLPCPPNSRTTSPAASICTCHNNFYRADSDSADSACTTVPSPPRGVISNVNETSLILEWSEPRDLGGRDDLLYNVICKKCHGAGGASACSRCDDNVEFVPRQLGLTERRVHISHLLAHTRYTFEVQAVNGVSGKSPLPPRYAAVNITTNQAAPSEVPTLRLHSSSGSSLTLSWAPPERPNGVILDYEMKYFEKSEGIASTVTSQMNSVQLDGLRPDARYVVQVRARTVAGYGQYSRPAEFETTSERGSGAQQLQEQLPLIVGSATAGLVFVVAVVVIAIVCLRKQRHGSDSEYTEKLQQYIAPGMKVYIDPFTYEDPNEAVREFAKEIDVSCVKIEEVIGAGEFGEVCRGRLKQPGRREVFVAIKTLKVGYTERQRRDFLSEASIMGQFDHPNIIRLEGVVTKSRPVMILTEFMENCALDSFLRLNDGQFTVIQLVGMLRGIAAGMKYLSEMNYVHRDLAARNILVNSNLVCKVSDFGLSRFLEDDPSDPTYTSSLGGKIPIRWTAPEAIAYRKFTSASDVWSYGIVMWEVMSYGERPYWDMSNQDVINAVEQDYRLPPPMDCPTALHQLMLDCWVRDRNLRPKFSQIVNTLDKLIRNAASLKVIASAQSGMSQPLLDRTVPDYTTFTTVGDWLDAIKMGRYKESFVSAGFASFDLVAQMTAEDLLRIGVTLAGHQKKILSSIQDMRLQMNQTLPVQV
Chain of NEK2 (human) (P51955 whole entry, looked up): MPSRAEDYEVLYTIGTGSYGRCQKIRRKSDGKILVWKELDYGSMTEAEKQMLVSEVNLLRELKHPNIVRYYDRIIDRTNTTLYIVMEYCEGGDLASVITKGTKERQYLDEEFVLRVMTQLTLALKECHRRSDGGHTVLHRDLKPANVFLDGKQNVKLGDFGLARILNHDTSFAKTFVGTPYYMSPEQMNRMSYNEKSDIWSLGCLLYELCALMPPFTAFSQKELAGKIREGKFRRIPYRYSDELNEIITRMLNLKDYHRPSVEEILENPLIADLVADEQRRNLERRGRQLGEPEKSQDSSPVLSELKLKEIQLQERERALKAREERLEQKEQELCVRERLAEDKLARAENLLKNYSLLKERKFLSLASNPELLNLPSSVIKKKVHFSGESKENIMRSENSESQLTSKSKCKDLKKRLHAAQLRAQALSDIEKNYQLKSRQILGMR
Chain of SGK1 (human), O00141 [S422D] (O00141 whole entry S422D, looked up): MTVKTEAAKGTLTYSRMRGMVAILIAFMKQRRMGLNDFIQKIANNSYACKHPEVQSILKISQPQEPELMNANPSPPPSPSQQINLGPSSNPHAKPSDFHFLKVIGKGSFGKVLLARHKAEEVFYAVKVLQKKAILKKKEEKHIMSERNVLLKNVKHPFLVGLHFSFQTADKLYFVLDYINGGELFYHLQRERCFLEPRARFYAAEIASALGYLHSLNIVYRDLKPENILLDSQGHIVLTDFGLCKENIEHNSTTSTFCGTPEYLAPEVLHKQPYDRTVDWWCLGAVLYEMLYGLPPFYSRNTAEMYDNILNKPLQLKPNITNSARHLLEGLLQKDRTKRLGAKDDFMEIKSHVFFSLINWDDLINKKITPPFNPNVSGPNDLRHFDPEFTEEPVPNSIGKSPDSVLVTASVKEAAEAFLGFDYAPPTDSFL

## C=CC(=O)N1CCC[C@@H](n2nc(-c3ccc(Oc4ccccc4)cc3)c3c(N)ncnc32)C1
MAPK8 (human); compound 0.1 µM
  residual activity: 98%
MAPK8 (human); compound 1.0 µM
  residual activity: 98%
MAPK8 (human); compound 10.0 µM
  residual activity: 75%
NUAK1 (human); compound 0.1 µM
  residual activity: 99%
NUAK1 (human); compound 1.0 µM
  residual activity: 82%
NUAK1 (human); compound 10.0 µM
  residual activity: 26%
CHEK2 (human); compound 0.1 µM
  residual activity: 92%
CHEK2 (human); compound 1.0 µM
  residual activity: 77%
CHEK2 (human); compound 10.0 µM
  residual activity: 35%
MAPK1 (human); compound 0.1 µM
  residual activity: 94%
MAPK1 (human); compound 1.0 µM
  residual activity: 99%
MAPK1 (human); compound 10.0 µM
  residual activity: 90%
MAP3K11 (human); compound 0.1 µM
  residual activity: 87%
MAP3K11 (human); compound 1.0 µM
  residual activity: 65%
MAP3K11 (human); compound 10.0 µM
  residual activity: 28%
MAPK13 (human); compound 0.1 µM
  residual activity: 88%
MAPK13 (human); compound 1.0 µM
  residual activity: 104%
MAPK13 (human); compound 10.0 µM
  residual activity: 80%
PRKACA (human); compound 0.1 µM
  residual activity: 89%
PRKACA (human); compound 1.0 µM
  residual activity: 101%
PRKACA (human); compound 10.0 µM
  residual activity: 97%
MAPK3 (human); compound 0.1 µM
  residual activity: 83%
MAPK3 (human); compound 10.0 µM
  residual activity: 84%
[1]; compound 0.1 µM
  residual activity: 95%
[1]; compound 1.0 µM
  residual activity: 107%
[1]; compound 10.0 µM
  residual activity: 84%
MAPK10 (human); compound 0.1 µM
  residual activity: 84%
MAPK10 (human); compound 1.0 µM
  residual activity: 96%
MAPK10 (human); compound 10.0 µM
  residual activity: 86%
[2]; compound 0.1 µM
  residual activity: 79%
[2]; compound 1.0 µM
  residual activity: 97%
[2]; compound 10.0 µM
  residual activity: 78%
MAPKAPK3 (human); compound 0.1 µM
  residual activity: 109%
MAPKAPK3 (human); compound 1.0 µM
  residual activity: 109%
MAP2K6 (human); compound 0.1 µM
  residual activity: 82%
MAP2K6 (human); compound 1.0 µM
  residual activity: 97%
MAP2K6 (human); compound 10.0 µM
  residual activity: 61%
MST4 (human); compound 0.1 µM
  residual activity: 100%
MST4 (human); compound 1.0 µM
  residual activity: 73%
MST4 (human); compound 10.0 µM
  residual activity: 27%
RPS6KA1 KD1 KD2 (human); compound 0.1 µM
  residual activity: 94%
RPS6KA1 KD1 KD2 (human); compound 1.0 µM
  residual activity: 101%
RPS6KA1 KD1 KD2 (human); compound 10.0 µM
  residual activity: 46%
PLK1 (human); compound 0.1 µM
  residual activity: 88%
PLK1 (human); compound 1.0 µM
  residual activity: 95%
PLK1 (human); compound 10.0 µM
  residual activity: 76%
IKBKE (human); compound 0.1 µM
  residual activity: 100%
IKBKE (human); compound 1.0 µM
  residual activity: 95%
IKBKE (human); compound 10.0 µM
  residual activity: 66%
DYRK2 (human); compound 0.1 µM
  residual activity: 83%
DYRK2 (human); compound 1.0 µM
  residual activity: 105%
DYRK2 (human); compound 10.0 µM
  residual activity: 79%
MAPK12 (human); compound 0.1 µM
  residual activity: 89%
MAPK12 (human); compound 1.0 µM
  residual activity: 112%
PRKCA (human); compound 0.1 µM
  residual activity: 99%
PRKCA (human); compound 10.0 µM
  residual activity: 100%
DYRK1A (human); compound 0.1 µM
  residual activity: 112%
DYRK1A (human); compound 1.0 µM
  residual activity: 105%
DYRK1A (human); compound 10.0 µM
  residual activity: 87%
CaMK1 (human); compound 0.1 µM
  residual activity: 80%
CaMK1 (human); compound 1.0 µM
  residual activity: 99%
CaMK1 (human); compound 10.0 µM
  residual activity: 33%
NEK2 (human); compound 0.1 µM
  residual activity: 93%
NEK2 (human); compound 1.0 µM
  residual activity: 107%
NEK2 (human); compound 10.0 µM
  residual activity: 35%
SYK (human); compound 0.1 µM
  residual activity: 90%
SYK (human); compound 1.0 µM
  residual activity: 100%
SYK (human); compound 10.0 µM
  residual activity: 52%
AURKA (human); compound 0.1 µM
  residual activity: 92%
AURKA (human); compound 1.0 µM
  residual activity: 57%
AURKA (human); compound 10.0 µM
  residual activity: 10%
ERBB4 (human); compound 0.1 µM
  residual activity: 7%
ERBB4 (human); compound 1.0 µM
  residual activity: 8%
ERBB4 (human); compound 10.0 µM
  residual activity: 5%
PRKAA1 or PRKAA2 (rat); compound 0.1 µM
  residual activity: 88%
PRKAA1 or PRKAA2 (rat); compound 1.0 µM
  residual activity: 101%
PRKAA1 or PRKAA2 (rat); compound 10.0 µM
  residual activity: 78%
HIPK2 (human)
  residual activity: 66%
MKNK1 (human); compound 0.1 µM
  residual activity: 91%
MKNK1 (human); compound 1.0 µM
  residual activity: 115%
MKNK1 (human); compound 10.0 µM
  residual activity: 84%
BRSK2 (human); compound 0.1 µM
  residual activity: 100%
BRSK2 (human); compound 1.0 µM
  residual activity: 91%
BRSK2 (human); compound 10.0 µM
  residual activity: 61%
MARK2 (human); compound 0.1 µM
  residual activity: 88%
MARK2 (human); compound 1.0 µM
  residual activity: 102%
MARK2 (human); compound 10.0 µM
  residual activity: 82%
EPHB2 (human); compound 0.1 µM
  residual activity: 102%
EPHB2 (human); compound 1.0 µM
  residual activity: 65%
EPHB2 (human); compound 10.0 µM
  residual activity: 11%
PAK7 (human); compound 0.1 µM
  residual activity: 93%
PAK7 (human); compound 1.0 µM
  residual activity: 97%
PAK7 (human); compound 10.0 µM
  residual activity: 50%
EPHB3 (human); compound 0.1 µM
  residual activity: 99%
EPHB3 (human); compound 1.0 µM
  residual activity: 96%
EPHB3 (human); compound 10.0 µM
  residual activity: 51%
PAK4 (human); compound 0.1 µM
  residual activity: 93%
PAK4 (human); compound 1.0 µM
  residual activity: 85%
PAK4 (human); compound 10.0 µM
  residual activity: 42%
